Tests used:
Bowes cells = experiment: Cell viability measurement (CellTiter-Glo); format: cell-based, human; conditions: 24 h in 10% FBS-MEM
Method: Bowes human melanoma cells were obtained from American Type Culture Collection (Manassas, Va.). Bowes cells were cultured in Minimal Essential Medium with Earie's sats complemented with Glutamax-I, non-essential amino acids, sodium pyruvate, penicillin, streptomycin (referred on figures as “MEM”) and 10% foetal bovine serum (FBS). All media components for Bowes cells were from invitrogen Corporation (Paisley, UK). Trypsin/EDTA was from PAA laboratories GmbH (Linz, Austria). Cells were subcultured once a week, seeding 200 000 cells per T75. For the viability assays, 50 000 cells (in 300 μl) were seeded per a well in a 24-well-plate a day before the experiment. K562 human erythroleukemia cells were obtained from American Type Culture Collection (Manassas, Va.). K562 cells were cultured in RPMI-1640 medium complemented with Glutamax-I, penicillin, streptomycin (referred in FIG. 32-35 as “RPMI”) and foetal bovine serum (7.5%). All media components for K562 cells were from invitrogen Corporation (Paisley, UK). […]
The stock solutions of the conjugates (1 mM) were prepared in sterile water and the stock solution of MTX in 10% DMSO in water. […] Then 300 μl was transferred to a white polystyrene FluoroNunc™ plate (Nunc A/S, Roskilde, Denmark) and luminescence was recorded at dual-scanning microplate spectrofluorometer (SPECTRAmax® GEMINI XS, Molecular Devices, Sunnyvale, Calif.).

LoVo cells = experiment: Internalisation of biotinylated selCPPs, fluorescence microscopy; format: cell-based, human
Method: One aspect of the present invention thus comprises a method for screening the cellular uptake of a broad variety of CPPs in vitro, wherein cells are grown on glass cover slips to suitable, such as 50%, density, whereupon the media is changed to serum free and a blotinylated peptide solution is added. The cells are then incubated, washed, fixed and the peptides are visualised by staining with, e.g. avidin-FITC, or streptavidin-TRITC, and the cell nuclei are counterstained, e.g. with Hoechst. Images are preferably obtained with a fluorescence microscope and evaluated.
FIG. 5. Example of inactivated selCPP. Internalisation of YTA-2 (A) compared to YTA-2 ps (B) In LoVo cells, both biotynilated peptides detected by TRITC-avidin at 37° C.
The cells were grown on round glass cover slips (12 mm, GTF, Sweden) in a 24-well plate to approximately 50% confluence. The media was changed to serum free and the biotinylated peptide solutions were added. The cells were incubated for 30 min at 37 or 4° C. The cells were washed twice with PBS, fixed with 4% paraformaldehyde solution 15 min at room temperature (dark) and then permeabilised in 30 mM HEPES buffer containing 0.5% w/v Triton X-100, 3 min on Ice. Sites for unspecific binding were blocked In PBS containing 3% (w/v) bovine serum albumin, overnight at 4° C. The peptides were visualised by staining with avidin-FrTC or streptavidin-TRITC (Molecular Probes, the Netherlands). The cell nuclei were stained with Hoechst 33258 (0.5 μg/ml) for 5 min, after which the cover slips were washed 3 times with PBS and mounted in 25% glycerol in PBS. The images were obtained with a Leica DM IRE2 fluorescence microscope (Leica Microsystem., Sweden) and processed in PhotoShop 6.0 software (Adobe Systems Inc., CA) (See e.g. FIG. 38-40).

MMP2 = biological target: T1, MMP2 (Homo sapiens, UniProt P08253); experiment: Specific cleavage by matrix metallo proteinase-2; format: biochemical; conditions: mass spectrometry, data not shown
T1 construct: check the specific cleavage of YTA-2 ps by active MMP-2
T1 sequence (P08253 110-660): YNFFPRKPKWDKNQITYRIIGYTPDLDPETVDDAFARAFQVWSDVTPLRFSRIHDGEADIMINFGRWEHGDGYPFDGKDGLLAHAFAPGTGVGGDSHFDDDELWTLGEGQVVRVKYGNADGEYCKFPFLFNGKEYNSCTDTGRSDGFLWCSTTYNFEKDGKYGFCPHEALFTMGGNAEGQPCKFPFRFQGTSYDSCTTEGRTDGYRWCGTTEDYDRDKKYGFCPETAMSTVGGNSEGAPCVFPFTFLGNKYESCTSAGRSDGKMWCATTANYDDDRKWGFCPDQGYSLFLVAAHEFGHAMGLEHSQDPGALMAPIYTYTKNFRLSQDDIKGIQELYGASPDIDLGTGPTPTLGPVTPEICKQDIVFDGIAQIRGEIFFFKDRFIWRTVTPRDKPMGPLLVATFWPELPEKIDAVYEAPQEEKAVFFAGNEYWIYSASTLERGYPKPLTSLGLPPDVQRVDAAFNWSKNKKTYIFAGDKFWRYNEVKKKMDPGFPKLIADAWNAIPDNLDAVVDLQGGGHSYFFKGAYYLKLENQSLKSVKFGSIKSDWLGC
Method: (data not shown). […] The next step in the development of this technique is to check the specific cleavage of YTA-2 ps by active MMP-2. It is performed by a fluorescence/quencher assay, wherein the MMP-2 substrate YTA-2 ps upon cleavage increases in fluorescence intensity. The correct cleavage is further checked by mass spectrometry.

cells = experiment: Protein internalisation by YTA-2 of Fluo-Streptavidin; format: cell-based; conditions: 67 kDa fluorescein labelled streptavidin linked to biotinylated peptide
Method: FIG. 39. Protein internalisation by YTA-2 of Fluo-Streptavidin 37° C. and T/E, showing the delivery property of a selCPP.
FIG. 40. Protein internalisation by YTA-2 of Fluo-Streptavidin 4° C. and T/E, showing the delivery property and temperature independency of a selCPP.

Substance | toxic effect on cell viability (Bowes cells) | Comment (staining/localisation) (LoVo cells) | Entry into cells (LoVo cells; 37° and 4° C.) | cleavage by MMP2 (MMP2) | cargo transport (cells)
Apa-γGlu-Gly-pVEC | more toxic than Apa-Glu-Gly-pVEC | – | – | – | –
YTAIAWVKAFIRKLRK [YTA-2] | – | stain also nuclear | can efficiently enter cells | confirmed by mass spectrometry | can transport large cargo molecules into cells

From patent US20080234183A1, “Cell Penetrating Peptides” (priority 2002, published 2008)
